According to PMC12756723, “Derivatives of the Cashew Nut Shell Liquid as Ligands of Pseudomonas aeruginosa Phenazine Protein D (PaPhzD)” (ACS Omega, 2025):
Entries after “also recorded” stand apart in the source; their conditions may differ.

Assays:
PaPhzD = molecular target: T1, PaPhzD (Pseudomonas aeruginosa, UniProt P0DPB9); assay: Thermal shift assay (TSA) with SYPRO Orange; type: binding; conditions: for Concentration–response behavior of ΔTm: 6.25 to 100 μM; for ΔTm at 50 µM: read-out: ΔTm of PaPhzD
T1 construct: inferred from Ni-NTA purification with imidazole elution; made in house; host or cells: E. coli BL21(DE3)
Procedure: Thermal shift assays were performed on an Applied Biosystems 7500 RT-PCR (Applied Biosystems, Foster City, CA USA). All experiments were carried out in triplicate with 1 °C per minute increments in temperatures that range from 25 to 85 °C in 96-well PCR plates (PCR plates 96-well, BioRad), sealed with transparent capping strips (Flatcap strips, BioRad). The fluorescence of SYPRO Orange (Invitrogen S6650) was monitored (excitation wavelength, 492 nm; emission wavelength, 610 nm). Before the compounds’ screening, protein and DMSO concentrations were evaluated to improve PaPhzD stability throughout the assay.
The protein concentration required for an optimal signal-to-noise ratio (>5-fold) was evaluated by analysis of the raw fluorescence curves at different PaPhzD concentrations (1–5 μM). Then, the effect of DMSO (0–10%) over PaPhzD T m was evaluated at the optimal protein concentration. Fluorescence raw data were recorded using Applied Biosystems 7500 Software v2.0 and then processed with NAMI software to calculate T m values by the first-derivative method.
LDT compounds were screened at a final concentration of 50 μM. Briefly, 1 μL of each compound (1 mM DMSO stock solution) was added to a mixed solution containing 5 μM PaPhzD diluted in 50 mM Tris–HCl buffer (pH 8.0) containing 100 mM NaCl, 1 mM DTT, and SYPRO Orange dye (Invitrogen S6650) (1:100 dilution). Each compound was assayed in triplicate, and ΔT m values were calculated by comparison to reference wells that had 1 μL DMSO instead of the LDT compounds. Differences between T m values (ΔT m) were considered statistically significant when p < 0.01, according to the one-way ANOVA followed by Dunnett’s post-test for multiple comparisons, available in GraphPad Prism 9.0 software (GraphPad Software, San Diego, CA, USA, www.graphpad.com).
Compounds with ΔT m values statistically different from the reference were also assayed at different concentrations (ranging from 6.25 to 100 μM) to evaluate the concentration–response behavior. The ΔT m versus concentration plots were generated using the nonlinear regression method available in GraphPad Prism version 9.0.

human PPAR isoforms = test system: human PPAR isoforms; design: method as in Sahin et al. 2022 (likely, number not given); conditions: previously investigated; ref Sahin et al. 2022 (likely, number not given); cited from earlier work
PaPhzD-FITC = molecular target: T2, PaPhzD-FITC (Pseudomonas aeruginosa, UniProt P0DPB9); assay: Fluorescence binding assay with FITC-labeled PaPhzD
T2 construct: inferred from Ni-NTA purification with imidazole elution; made in house; host or cells: E. coli BL21(DE3)
Procedure: PaPhzD (2.1 mg/mL) was incubated with 6 mg/mL fluorescein isothiocyanate (FITC) (Sigma-Aldrich 46950) (1:1) for 2 h at 25 °C. Next, the reaction mixture was eluted on a Hi-Trap HP desalting column (GE Healthcare) with 2 CV of 50 mM HEPES buffer (pH 8.0). The collected fractions were quantified at two different wavelengths (280 and 495 nm), and the molar ratio (Abs495/Abs280) ranging from 0.3 to 1.0 was employed for K d calculation experiments.
Subsequently, the fluorescence intensity of 0.32 μM of FITC-labeled PaPhzD was measured on a real-time thermocycler (Applied Biosystems 7500) equipped with the filter FAN (excitation wavelength: 498 nm; emission wavelength: 530 nm) for 10 min in the presence of different concentrations of each LDT compound (ranging 0.7–100 μM), previously diluted in DMSO.
The fluorescence raw data were recorded using Applied Biosystems 7500 Software v2.0, then exported to GraphPad Prism version 9.0 software to build fluorescence intensity × concentration plots and calculate K d values of the ligands by the nonlinear regression method (3-parameter fit). All experiments were carried out in triplicate using a 96-well PCR plate, manually sealed with transparent capping strips (Flatcap strips, BioRadVR).

[1] = test system: P. aeruginosa cells (ATCC 27853); assay: Screening of PYO production inhibitors (supernatant absorbance 691 nm); type: cell-based, Pseudomonas aeruginosa; conditions: 100 μM; for Pyocyanin production, Cohen's d vs control: 24 h, 30 °C; for Effect on pyocyanin production: vs DMSO control
Procedure: P. aeruginosa cells (ATCC 27853) were inoculated by depletion on King’s A agar, and the plates were incubated at 30 °C for 24 h. Isolated colonies were collected and resuspended in sterile saline solution (0.85%) until turbidity equivalent to optical density (OD) at 600 nm, equal to 0.3 (1.5 × 10^8 CFU/mL). This bacterial suspension was diluted 10-fold and used to inoculate King’s A broth.
(§1) The potential inhibitors, previously solubilized in DMSO, were added to the culture medium after the inoculation (final concentration = 100 μM). The control group was cultured in the presence of an equivalent volume of DMSO but without the presence of potential inhibitors. The cell suspension was maintained at 30 °C under constant agitation (180 rpm) for 24 h in a 24-well plate. After this period, the OD600 was measured to evaluate bacterial growth, and in parallel, after being subjected to centrifugation, the supernatant was read in a 96-well plate at a wavelength of 691 nm. The sterile medium used for culturing the microorganism was used as a positive control, and culture medium containing 1% DMSO was used as a negative control.

P. aeruginosa PA14 [2] = assay: Biofilm assay (crystal violet); type: cell-based, Pseudomonas aeruginosa; conditions: 100 μM
Procedure: Exponential phase cultures of P. aeruginosa PA14 were diluted to 5 × 10^5 colony forming units (CFU) in 48-well plates with LB containing each compound (1, 3, and 5) at 100 μM final concentrations or 0.1% DMSO (v/v) as a negative control. The plate was incubated steadily at 30 °C for 20 h inside a plastic bag to avoid evaporation. After the incubation, the OD600 of each well was measured in a plate reader (SpectraMax Paradigm). The planktonic bacteria were removed by turning the plate over the waste, followed by three steps of washing with distilled water. After drying, a solution of 1% crystal violet was added to each well and incubated at room temperature for 30 min to stain the attached cells forming a ring at the air–liquid interface. The crystal violet solution was removed, and the plate was washed using the same procedure. The dye was solubilized with 30% acetic acid for 30 min at room temperature. The Abs550 was measured, and the value was divided by the OD600 for each well. A total of 24 replicates were made for each treatment (6 wells per plate, four plates)

P. aeruginosa PA14 [3] = assay: Swarming assay; type: cell-based, Pseudomonas aeruginosa; conditions: 100 μM
Procedure: Swarming assays were performed as described, using 6-well plates. Briefly, 3 μL of culture (OD600 = 3.0) was inoculated in the center of modified M9 (20 mM NH4Cl; 12 mM Na2HPO4; 22 mM KH2PO4; 8.6 mM NaCl; 1 mM MgSO4; 1 mM CaCl2 2 H2O; 11 mM glucose; 0.5% casamino acids (Difco)) with 0.5% of Bacto-agar (Difco), containing the respective compounds (100 μM final concentration, diluted in DMSO). Plates were incubated inside plastic bags to avoid evaporation at 30 °C for 16 h. After this period, pictures were taken, and the area covered by the colonies was measured using ImageJ. All assays were performed with four replicates, and 0.1% DMSO (v/v) was employed as a negative control.

P. aeruginosa = assay: Colony morphology in medium containing compounds; type: cell-based, Pseudomonas aeruginosa; conditions: data not shown
PPAR LBDs = test system: PPAR LBDs; design: method as in not printed (previous PPAR work); conditions: ref not given (previous PPAR work), cited from earlier work
[4] = test system: P. aeruginosa cells (ATCC 27853); assay: Bacterial growth (OD600) in the PYO screening culture; type: cell-based, Pseudomonas aeruginosa; conditions: 100 μM
Procedure: as §1

phzA1-G1 = assay: lacZ transcriptional fusion, phzA1-G1 operon; type: cell-based, Pseudomonas aeruginosa; conditions: late exponential phase
Procedure: (§2) P. aeruginosa harbors two identically structured operons in its genome, which encode most of the enzymes responsible for PYO synthesis (phzA1-G1 and phzA2-G2) but have slightly different regulatory regions 1. lacZ transcriptional fusions for each operon were assayed at mid-log and late exponential phases (OD=1 and 3, respectively). At mid-log cultures, the expression of both QS-regulated operons is extremely low, and it increases more than 1000-fold at late exponential phase for phzA1-G1 and 4-fold for phzA2-G2, as expected. Addition of compounds 2 and 4 had no effect for both operons in the late […]
(§3) synthesis is not related to inhibition at the transcriptional level.
(§4) Figure 7S: Effect of LDT10 (2) and LDT13 (3) on the phzA1-G1 (A) and phzA2-G2 […]
(§5) (1 picture or pasted object on this page, not shown here)

phzA2-G2 = assay: lacZ transcriptional fusion, phzA2-G2 operon; type: cell-based, Pseudomonas aeruginosa; conditions: late exponential phase
Procedure: as §2, §3, §4, §5

T2 sequence (P0DPB9 whole entry): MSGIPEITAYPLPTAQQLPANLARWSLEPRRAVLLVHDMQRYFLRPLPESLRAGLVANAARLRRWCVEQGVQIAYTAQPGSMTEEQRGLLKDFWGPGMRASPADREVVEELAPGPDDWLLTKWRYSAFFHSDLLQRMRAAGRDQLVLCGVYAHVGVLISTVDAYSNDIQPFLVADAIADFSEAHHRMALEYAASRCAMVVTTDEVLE
T1 sequence (P0DPB9 whole entry): as above

Compound	Concentration–response behavior of ΔTm (PaPhzD)	PPAR activity profile (human PPAR isoforms)	ΔTm at 50 µM (PaPhzD)	further results
CCCCCCCCCCCCCCCc1cccc(O)c1C(=O)O [Compound 1]	clear concentration–response behavior	dual (PPARα and PPARγ) agonists		
CCCCCCCCCCCCCCCc1cccc(OC(C)=O)c1C(=O)O [Compound 3]	clear concentration–response behavior	pan-agonist activity	-4.7 °C	Kd (PaPhzD-FITC): 0.72 µM; Pyocyanin production, Cohen's d vs control [1]: −1.37; Effect on pyocyanin production [1]: no effect on pyocyanin production; Biofilm mass, % of the control (P. aeruginosa PA14 [2]): ~30%; Biofilm, Cohen's d vs control (P. aeruginosa PA14 [2]): −2.29; Effect on swarming coverage area (P. aeruginosa PA14 [3]): did not affect the coverage area; Swarming motility, Cohen's d vs control (P. aeruginosa PA14 [3]): 0.51; Effect on colony morphology (P. aeruginosa): No effects on colony morphology; Increase of PPAR LBDs Tm vs DMSO control (PPAR LBDs; 50 μM): up to +17 °C
CCCCCCCCCCCCCCCc1cccc(OC)c1C(=O)O [Compound 4]	clear concentration–response behavior	selective PPARα agonist	-3.3 °C	Kd (PaPhzD-FITC): 3.6 µM; Pyocyanin production, Cohen's d vs control [1]: −2.69; Effect on pyocyanin production [1]: decreased pyocyanin production; Effect on bacterial growth [4]: without affecting bacterial growth; also recorded: no significant effect on bacterial growth; Effect on biofilm formation (P. aeruginosa PA14 [2]; vs DMSO control): without affecting bacterial growth or biofilm formation; also recorded: not significantly different the control; Swarming motility, % compared to control conditions (P. aeruginosa PA14 [3]): 65%; Swarming motility, Cohen's d vs control (P. aeruginosa PA14 [3]): −0.95; Effect on colony morphology (P. aeruginosa): No effects on colony morphology; Effect on phzA1-G1 transcription (phzA1-G1): no effect; Effect on phzA2-G2 transcription (phzA2-G2): no effect
CCCCCCCCCCCCCCCc1cccc(O)c1C(=O)OC [Compound 7]		do not activate PPAR receptors	< 0.5 °C	
CCCCCCCCCCCCCCCc1cccc(OC(C)=O)c1C(=O)OC [Compound 8]		do not activate PPAR receptors	< 0.5 °C	
CCCCCCCCCCCCCCCc1cccc(OC)c1C(=O)OC [Compound 9]		do not activate PPAR receptors	< 0.5 °C	
CCCCCCCCCCCCCCCc1ccc(C(=O)O)c(OC)c1 [Compound 10]		dual (PPARα and PPARγ) agonists	-1.2 °C	
CCCCCCCCCCCCCCCc1cccc(OC(C)=O)c1 [Compound 11]		do not activate PPAR receptors	< 0.5 °C	
CCCCCCCCCCCCCCCc1cccc(OC)c1 [Compound 12]		do not activate PPAR receptors	< 0.5 °C	
CCCCCCCCCCCCCCCc1cccc(OCC(=O)OCC)c1 [Compound 13]		pan-agonist activity	-1.2 °C	Thermal shift in LBDs of PPARα and PPARγ (PPAR LBDs): negative thermal shift
CCCCCCCCCCCCCCCc1cccc(OC(C)(C)C(=O)OCC)c1 [Compound 14]		dual (PPARα and PPARγ) agonists	< 0.5 °C	Effect on Tm values for all three PPARs (PPAR LBDs): no effect on the T m values
CCCCCCCCCCCCCCCc1cccc(OCC(=O)O)c1 [Compound 15]	clear concentration–response behavior	pan-agonist activity	-3.8 °C	Kd (PaPhzD-FITC): 1000 µM
CCCCCCCCCCCCCCCc1cccc(OC(C)(C)C(=O)O)c1 [Compound 16]		pan-agonist activity	-2.6 °C	
